In PubChem BioAssay (NCI):
“And” between values parts separate entries of the source, which are not always exact repeats. Identical values can stand only once.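 The compound was tested at five concentrations on cells cultured in 96-well plates, with a 48-hour exposure period. Abbreviation: GI50, concentration required for 50% inhibition of growth. TGI denotes the concentration required for complete inhibition of growth.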

Assays:
Assay in all cases: growth of human tumour cells (NCI), 48 h
SN12C renal = test system: SN12C renal
MDA-MB-231 breast = test system: MDA-MB-231 breast
NCI-H522 lung = test system: NCI-H522 lung
ACHN renal = test system: ACHN renal
HL-60(TB) leukemia = test system: HL-60(TB) leukemia
HCT-116 colon = test system: HCT-116 colon
OVCAR-5 ovarian = test system: OVCAR-5 ovarian
A498 renal = test system: A498 renal
IGROV1 ovarian = test system: IGROV1 ovarian
COLO 205 colon = test system: COLO 205 colon

Structure (SMILES) | GI50 (SN12C renal) [µM] | TGI (SN12C renal) [µM] | GI50 (MDA-MB-231 breast) [µM] | TGI (MDA-MB-231 breast) [µM] | GI50 (NCI-H522 lung) [µM] | TGI (NCI-H522 lung) [µM] | GI50 (ACHN renal) [µM] | TGI (ACHN renal) [µM] | GI50 (HL-60(TB) leukemia) [µM] | TGI (HL-60(TB) leukemia) | GI50 (HCT-116 colon) [µM] | TGI (HCT-116 colon) [µM] | GI50 (OVCAR-5 ovarian) [µM] | TGI (OVCAR-5 ovarian) | GI50 (A498 renal) [µM] | TGI (A498 renal) [µM] | GI50 (IGROV1 ovarian) [µM] | TGI (IGROV1 ovarian) [µM] | GI50 (COLO 205 colon) [µM] | TGI (COLO 205 colon)
O=C(Nc1ccc(I)cc1F)c1cc(Cl)ccc1O | 0.365 | 4.47 | 0.388 | 4.56 | 0.324 | 4.68 | 0.487 | 10.6 | 0.441 | 3.27 µM | 0.403 | 1.95 | 3.55 | > 100 µM | 0.176 | 0.585 | 0.36 | > 100 | 3.45 | 11.2 µM
CN1C(Cl)=NS(=O)(=O)c2ccccc21 |  | > 100 |  | > 100 |  | > 100 |  | > 100 |  | > 100 µM |  | > 100 |  | > 100 µM |  | > 100 |  | > 100 |  | > 100 µM
O=C1OC(c2ccccc2)=N/C1=C\c1cccc(F)c1 |  | > 100 |  | > 100 |  | 40.1 |  | > 100 |  | 61.2 µM |  | > 100 |  | > 100 µM |  | > 100 |  | > 100 |  | > 100 µM
CNC(=O)OCC1C2=C(C(=O)C(C)=C(N)C2=O)N2CC3C(N3C)C12OC (stereo not given) |  | > 100 |  | > 100 |  | 19.2 |  | 26.7 |  | 21.1 µM |  | 30.4 |  | > 100 µM |  | 34.2 |  | 26.1 |  | 31.7 µM
CC(=O)Oc1ccc(C(c2ccc(OC(C)=O)cc2)c2ccccn2)cc1 | 0.558 | > 100 | 48 | > 100 | 59 | > 100 | 36.8 | > 100 | 25.4 | 70 µM and 69.7 µM | 40.7 | > 100 | 55.7 | > 100 µM and 95.4 µM | 8.9 | > 100 | 19.9 | > 100 | 0.463 | 36.5 µM and > 69.4 µM
COc1cc(Cl)cc(-c2nn(-c3cccc(NC(=O)Nc4ccc(Cl)c(C(F)(F)F)c4)c3)cc2-c2ccncc2)c1 | 1.56 | 8.21 | 1.44 | 3.74 | 0.418 | 2.5 | 0.762 | 10.2 | 1.68 | 5.53 µM | 0.631 | 2.36 | 2.13 | 7.15 µM | 2.68 | 14.4 | 3.2 | 29.1 | 1.53 | 3.11 µM
COc1ccc(OC)c(Nc2nc(-c3c(C)nc4sccn34)cs2)c1 | > 100 | > 100 | > 100 | > 100 | 52.6 | > 100 | 38.6 | > 100 | > 100 | > 100 µM | > 100 | > 100 | > 100 | > 100 µM | 1.63 | > 100 | 23.2 | > 100 | > 100 | > 100 µM
Cc1cccc2c(N)c3ccccc3nc12 | 1.16 | 12.7 | 1.26 | 5.26 | 1.45 | 4.12 | 0.561 | 14.5 | 2.41 | 10.3 µM | 0.454 | 11.2 | 1.37 | 11.9 µM | 0.604 | 2.28 | 2.18 | 9.67 | 0.463 | 2.31 µM
